Entries after “also recorded” stand apart in the source; their conditions may differ. Structures can show the parent of a compound that is named as a salt.
Assays:
[1] = test system: IL-10; assay: Porcine SMA+FC model: IL-10 concentration in BALF; parameters: species or system pigs; conditions: pig, in vivo
From the text: (§4) In addition, the protocol included a 3-day termination period, due to the severity of the ARDS associated with this model and the desire to obtain clinically relevant end-point data on all animals.

[2] = test system: lung tissue; assay: Rat CLP model: lung histology; format: in vivo, Sprague-Dawley rats
Procedure: (§1) Surgical Procedure: Male Sprague-Dawley rats weighing between 250-300 g were acclimatized to the laboratory environment for one week prior to surgery. Free access to food and water was available for this time period. Rats were anesthetized with intraperitoneal (IP) Ketamine (90 mg/kg)/Xylazine (10 mg/kg ). Sepsis was produced using a modification of the cecal ligation and puncture (CLP) technique described by Chaudry et al. After the abdominal fur was shaved, a 2 cm midline incision was made through the skin and peritoneum. The cecum was identified and withdrawn through the incision. The avascular portion of the mesentery was sharply incised and the cecum was ligated just below the ileocecal valve with a 3-0 silk suture, so that intestinal continuity was maintained. Using an 18 gauge needle, the cecum was perforated in two locations on the antimesenteric surface and was gently compressed until feces were extruded to ensure patency of the holes. The bowel was then returned to the abdomen and the incision was closed in 2 layers using 3-0 Prolene™ for the muscle and 2-0 silk for the skin. Each rat received 10 cc physiological saline subcutaneously immediately after the procedure and at 12 and 24 hours post-surgery. The rats were allowed to recover with water and food provided ad libitum throughout the remainder of the study.
(§2) Experimental Protocol: Rats were randomly divided into 5 groups: GROUP 1) Sham CLP+2% solution of carboxymethylcellulose (CMC; vehicle for COL-3) in saline-midline laparotomy with cecum exposed and mesentery sharply incised plus oral gavage at the time of surgery with CMC (n=6); GROUP 2) Sham CLP+COL-3 (Collagenex Pharmaceutical, Newtown, Pa.)-midline laparotomy with cecum exposed and mesentery sharply incised plus oral gavage at the time of surgery with COL-3 (30 mg/kg, n=6); GROUP 3) CLP+CMC-midline laparotomy with CLP plus oral gavage at time of surgery with CMC (n=10); GROUP 4) CLP+COL-3 single dose [SD]-midline laparotomy with CLP plus oral gavage at the time of surgery with COL-3 (30 mg/kg, n=9); GROUP 5) CLP+COL-3 multiple dose [MD]-midline laparotomy with CLP plus oral gavage at the time of surgery and at 24 hours post CLP with COL-3 (30 mg/kg each administration for a total dose of 60 mg/kg, n=15). Rats were followed for 168 hours (7 days) with survival defined as hours post-CLP and survival time of each rat recorded. Rats were sacrificed at 168 hours or immediately following death. At necropsy, the left lung was excised and its bronchus cannulated. The lung was inflated to a pressure of 4 cmH2O with 10% formalin. The cannula was clamped and the lung stored in formalin at room temperature for 24 hours. The tissue was blocked in paraffin and serial sections made for staining with hematoxylin and eosin. Additionally, the remaining paraffin section of fixed lung was used for immunohistochemical determination of MMP-2 and MMP-9.
Histology: The lung tissue in each slide preparation was evaluated without knowledge of the treatment group from which it came. The slides were reviewed at low magnification for an overview to exclude sections containing bronchi, connective tissue, large blood vessels, and areas of confluent atelectasis, so that only regions reflecting the degree and stage of parenchymal injury would be evaluated. The areas of the slides which were not excluded were assessed at high magnification (400×) in the following manner. Five high power fields (HPF) were randomly sampled. […] Specifically, alveolar wall thickening, defined as greater than two cell layers thick, was graded as “0” (absent) or “1” (present) in each field. Intra-alveolar edema fluid, defined as homogenous or fibrillar proteinaceous staining within the alveoli, was graded as “0” (absent) or “1” (present) in each field. A total score/5HPF for alveolar wall thickening and intra-alveolar edema fluid was recorded for each animal. […]

[3] = Porcine SMA+FC model: blood COL-3 concentration
[4] = Porcine SMA+FC model: BALF protein concentration; parameters: species or system pigs; conditions: pig, in vivo
From the text: as §4

[5] = test system: sepsis-induced ARDS (SMA+FC); assay: Porcine fecal clot + SMA clamping sepsis-induced ARDS model: pulmonary function
[6] = test system: interleukin-6; assay: Porcine SMA+FC model: interleukin-6 concentration in BALF; parameters: species or system pigs; conditions: pig, in vivo
From the text: (§5) A sepsis-induced ARDS porcine model was developed. […] In addition, the protocol included a 3-day termination period, due to the severity of the ARDS associated with this model and the desire to obtain clinically relevant end-point data on all animals.

[7] = test system: sepsis-induced ARDS (cecal ligation and puncture); assay: Rat cecal ligation and puncture (CLP) model of sepsis-induced ARDS: survival; format: in vivo, Sprague-Dawley rats; conditions: for Mortality at 168 hours (7 days): CLP+CMC 70%
Procedure: as §1, §2
Statistical analysis: Survival rates were evaluated using the Kaplan and Meier method and the significance was determined by the generalized Wilcoxon method. Differences between groups were analyzed by one-way analysis of variance. When the F ratio indicated significance, a Newman-Keul test was used to identify individual differences. A p value less than 0.05 was considered significant. Correlations between COL-3 concentration and survival, COL-3 concentration and MMP-2 and MMP-9 levels and levels of MMP-2 and MMP-9 and survival were determined by simple linear regression analysis.

[8] = test system: MMP-9; assay: Rat CLP model: lung tissue MMP-9 level by immunohistochemistry; format: in vivo, Sprague-Dawley rats
Procedure: as §2
(§3) Lung tissue MMP-2 and MMP-9 levels: The levels of alveolar tissue MMP-2 and MMP-9 was assessed by immunohistochemical analysis as described elsewhere. Briefly, four micrometer formalin fixed paraffin sections were treated with xylene to remove paraffin and hydrated. The paraffin sections were treated with 0.4% pepsin for 45 minutes at +37° C. For immunostaining VECTASTAIN™ Rabbit ABC Elite Kit (Vector Laboratories, Burlingame, Calif.) was used according to manufactures instructions. […]

[9] = test system: IL-8; assay: Porcine SMA+FC model: IL-8 concentration in BALF; parameters: species or system pigs; conditions: pig, in vivo
From the text: as §5

[10] = test system: neutrophil elastase; assay: Porcine SMA+FC model: BALF elastase activity; parameters: species or system pigs; conditions: pig, in vivo
From the text: as §5

[11] = test system: Interleukin-1; assay: Porcine SMA+FC model: Interleukin-1 concentration in BALF; format: in vivo, pigs; conditions: between groups
From the text: as §4

[12] = target: T1, MMP-9 (Sus scrofa, UniProt A0A287AZD5); assay: Porcine SMA+FC model: MMP-9 in BALF; parameters: species or system pigs; conditions: pig, in vivo
T1 construct: from tissue; host or cells: pig bronchoalveolar lavage fluid (BALF)
T1 sequence (A0A287AZD5 19-708): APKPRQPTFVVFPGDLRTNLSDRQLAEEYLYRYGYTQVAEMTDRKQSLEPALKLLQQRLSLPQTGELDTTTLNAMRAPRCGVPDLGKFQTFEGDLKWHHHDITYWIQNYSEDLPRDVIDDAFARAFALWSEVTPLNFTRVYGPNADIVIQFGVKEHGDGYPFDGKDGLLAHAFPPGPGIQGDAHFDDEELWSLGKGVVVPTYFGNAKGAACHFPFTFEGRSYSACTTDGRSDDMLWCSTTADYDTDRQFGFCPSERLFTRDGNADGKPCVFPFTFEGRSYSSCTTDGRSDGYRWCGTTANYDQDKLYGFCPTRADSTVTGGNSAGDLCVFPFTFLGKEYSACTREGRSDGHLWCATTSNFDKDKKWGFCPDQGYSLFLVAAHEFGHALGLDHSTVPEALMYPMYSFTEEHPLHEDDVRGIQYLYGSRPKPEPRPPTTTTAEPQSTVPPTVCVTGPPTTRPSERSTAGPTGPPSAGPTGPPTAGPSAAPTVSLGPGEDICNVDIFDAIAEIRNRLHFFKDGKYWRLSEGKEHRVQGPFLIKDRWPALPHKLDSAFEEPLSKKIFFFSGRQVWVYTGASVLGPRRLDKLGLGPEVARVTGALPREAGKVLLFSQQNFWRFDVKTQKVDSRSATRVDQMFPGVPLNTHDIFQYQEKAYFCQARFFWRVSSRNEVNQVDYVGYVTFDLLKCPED
From the text: as §5

[13] = test system: lung tissue; assay: Porcine SMA+FC model: morphometric analysis of lung tissue and lung water; format: in vivo, pigs
From the text: as §5

[14] = test system: MMP-2; assay: Rat CLP model: lung tissue MMP-2 level by immunohistochemistry; format: in vivo, Sprague-Dawley rats
Procedure: as §2, §3

[15] = test system: pulmonary edema; assay: Rat CLP model: lung water (W/D weight ratio); format: in vivo, Sprague-Dawley rats
Procedure: as §2
Lung Water: Representative tissue samples from the right lung were sharply dissected free of nonparenchymal tissue. Samples were placed in a dish and weighed, dried in an oven at 65° C. for 24 h and weighed again. This was repeated until there was no weight change over a 24-h period at which time the samples were determined to be dry. Lung water was expressed as a wet to dry weight ratio (W/D).

[16] = test system: microbes; conditions: based on steady-state pharmacokinetics; cited from earlier work
[17] = 250 mg every six hours over a twenty-four hour period; cited from earlier work
[18] = single dose of two 100 mg minocycline HCl tablets, adult humans; cited from earlier work
[19] = test system: neutrophil elastase; conditions: LPS-induced acute lung injury, guinea pig; cited from earlier work
[20] = CLP+COL-3 (MD) vs CLP+CMC and CLP+COL-3 (SD)
[21] = COL-3 administration, dose dependent fashion, vs CLP+CMC
[22] = morphometric analysis of lung tissue

Structure (SMILES): NC(=O)C1=C(O)C[C@@H]2C[C@@H]3Cc4cccc(O)c4C(=O)C3=C(O)[C@]2(O)C1=O [COL-3, 6-demethyl-6-deoxy-4-de(dimethylamino)tetracycline]
- Increase in IL-10 concentration in BALF [1]: blocked the increase
- Number of neutrophils sequestered in the lung ([2]; CLP+COL-3 (MD) vs CLP+CMC): no significant differences
- Number of thickened alveolar walls ([2]; CLP+COL-3 (MD) vs CLP+CMC): significantly reduced
- Intra-alveolar edema fluid ([2]; CLP+COL-3 (MD), second dose, vs CLP+CMC): significant reduction
- Intra-alveolar edema fluid ([2]; CLP+COL-3 (SD) vs CLP+CMC): reduced in the CLP+COL-3 (SD) group as compared to the CLP+CMC group, but was not statistically significant
- Number of neutrophils sequestered in the lung ([2]; CLP+COL-3 (SD) vs CLP+CMC): no significant differences
- Number of thickened alveolar walls ([2]; CLP+COL-3 (SD) vs CLP+CMC): significantly reduced
- Blood COL-3 concentration ([3]; Day 1): 3.1 ± 0.3 µg/mL
- Blood COL-3 concentration ([3]; Day 2): 4.9 ± 1.0 µg/mL
- Blood COL-3 concentration ([3]; Day 3): 3.1 ± 1.0 µg/mL
- Decrease in bronchoalveolarlavage fluid (BALF) protein concentration [4]: 51%
- Improvement in A-a gradient ([5]; SMA+FC+COL-3 vs SMA+FC group): 64%
- Improvement in lung plateau pressure ([5]; SMA+FC+COL-3 vs SMA+FC group): 52%
- Improvement in pulmonary compliance ([5]; SMA+FC+COL-3 vs SMA+FC group): 344%
- Increase in PaO2/FiO2 ratio ([5]; SMA+FC+COL-3 vs SMA+FC group): 204%
- Reduction in pulmonary shunt fraction ([5]; SMA+FC+COL-3 vs SMA+FC group): 80%
- Development of ARDS ([5]; lung compliance, PaO2/FiO2 ratio, shunt fraction, lung water, histology not significantly different from Control Group): completely prevented
- Increase in interleukin-6 concentration in BALF [6]: blocked the increase
- Seven day survival rate ([7]; CLP+COL-3 (MD), repeat dose at 24 hours post CLP, p<0.05 vs CLP+CMC and CLP+COL-3 (SD)): enhanced survival benefit
- Mortality at 168 hours (7 days) ([7]; CLP+COL-3 (MD): 30 mg/kg at surgery and at 24 hours post CLP): 33%
- Seven day survival rate ([7]; CLP+COL-3 (SD) vs CLP+CMC, p<0.05): significant improvement in survival
- Mortality at 168 hours (7 days) ([7]; CLP+COL-3 (SD): single prophylactic dose 30 mg/kg oral gavage at surgery): 54%
- Survival with delayed administration ([7]; COL-3 given as much as 12 hours following CLP): significantly improve survival
- Survival of sham animals ([7]; Sham CLP+COL-3, 30 mg/kg oral gavage, 168 hours): all survived
- Lung tissue level of MMP-9 [8, 20]: further reduced the level of MMP-9 to Sham CLP levels; also recorded: significantly reduced
- Lung tissue level of MMP-9 ([8]; CLP+COL-3 (SD) vs CLP+CMC): reduced MMP-9 levels compared to the CLP+CMC group, but was not statistically significant
- Alveolar tissue level of MMP-9 [8, 21]: significantly reduced
- Increase in IL-8 concentration in BALF [9]: blocked the increase
- Neutrophil elastase in BALF [10]: inhibited
- Reduction in BALF elastase activity [10]: 87%
- Interleukin-1 concentration [11]: not significantly different
- MMP-9 in BALF [12]: inhibited
- Number of neutrophils sequestered in the lung ([13]; SMA+FC and SMA+FC+COL-3 groups vs Control Group, morphometric assessment): increased equally
- Decrease in hyline membranes [13, 22]: 94%
- Reduction in alveolar edema [13, 22]: 62%
- Decrease in lung water ([13]; pig, in vivo): 41%
- Lung tissue level of MMP-2 [14, 20]: further reduction
- Lung tissue level of MMP-2 ([14]; CLP+COL-3 (SD) vs CLP+CMC): significantly reduced
- Alveolar tissue level of MMP-2 [14, 21]: significantly reduced
- Lung water (W/D weight ratio) ([15]; CLP+COL-3 (MD), second dose at 24 hours post CLP): reduced edema to Sham CLP levels; also recorded: further reduced
- Lung water (W/D weight ratio) ([15]; CLP+COL-3 (SD) vs CLP+CMC): significantly reduced
- Lung water or edema ([15]; COL-3 administration, dose dependent manner, vs CLP+CMC): significantly reduced

Structure (SMILES): CN(C)[C@@H]1C(O)=C(C(N)=O)C(=O)[C@@]2(O)C(O)=C3C(=O)c4c(O)cccc4[C@@](C)(O)[C@H]3C[C@@H]12 [tetracycline, Tetracycline]
- Plasma antibiotic threshold level [16]: 0.5 µg/mL

Structure (SMILES): CN(C)[C@@H]1C(O)=C(C(N)=O)C(=O)[C@@]2(O)C(O)=C3C(=O)c4c(O)cccc4[C@@](C)(O)[C@H]3C[C@@H]12 [tetracycline HCl]
- Peak plasma concentration [17]: approximately 3 μg/ml

Structure (SMILES): CN(C)c1ccc(O)c2c1C[C@H]1C[C@H]3[C@H](N(C)C)C(O)=C(C(N)=O)C(=O)[C@@]3(O)C(O)=C1C2=O [minocycline HCl]
- Average minocycline serum level [18]: 2.24 µg/mL

Structure (SMILES): CC(C)(C)C(=O)Oc1ccc(S(=O)(=O)Nc2ccccc2C(=O)NCC(=O)O)cc1 [ONO-5046, N-[2-[4-(2,2-dimethylpropionyloxy)-phenylsulfonylamino]benzoyl]aminoacetic acid]
- Neutrophil elastase activity [19]: inhibits
